Results published in patent US12077537B2 (Gilead Sciences, Inc., priority 2020, dated 2024).

Tested on: HIV-IIIb
Experiment: Antiviral assay in MT4 cells
Assay type: cell-based
Settings: Human immunodeficiency virus 1, MT4, 120 h; MT-4 cells mixed with HIV-IIIb at m.o.i. 0.003; 5 days at 37° C.; CellTiter-Glo luminescence; 50% decrease in signal, a measure of HIV-1 replication
Experimental: Antiviral Assay in MT4 Cells For the antiviral assay, 40 μL of a concentration required to achieve a final effective 1× test concentration of 3-fold serially diluted compound in culture medium with 10% FBS was added to each well of a 384-well plate (10 concentrations) in quadruplicate. MT-4 cells were next mixed with HIV-IIIb at an m.o.i of 0.003 for 1 hour, after which time 35 μL of virus/cell mixture (2000 cells) was immediately added to each well containing 40 μL of diluted compound. The plates were then incubated at 37° C. for 5 days. After 5 days of incubation, 25 μl of 2× concentrated CellTiter-Glom Reagent (catalog #G7571, Promega Biosciences, Inc., Madison, WI) was added to each well containing MT-4 cells. Cell lysis was carried out by incubating at room temperature for 10 min and then chemiluminescence was read.

Row | Structure (SMILES) | EC50 [nM]
1 | NC(=O)c1cc(-c2cc3sc(N4CCn5cnnc5C4)nc3nc2[C@H](Cc2cc(F)cc(F)c2)NC(=O)Cn2nc(C(F)(F)F)c3c2C(F)(F)[C@@H]2C[C@H]32)ccc1F [Compound 31, 5-(5-((S)-1-(2-((3bS,4aR)-5,5-difluoro-3-(trifluoromethyl)-3b,4,4a,5-tetrahydro-1H-cyclopropa[3,4]cyclopenta[1,2-c]pyrazol-1-yl)acetamido)-2-(3,5-difluorophenyl)ethyl)-2-(5,6-dihydro-[1,2,4]triazolo[4,3-a]pyrazin-7(8H)-yl)thiazolo[4,5-b]pyridin-6-yl)-2-fluorobenzamide] | 466
2 | CC1(O)CN(c2nc3nc([C@H](Cc4cc(F)cc(F)c4)NC(=O)Cn4nc(C(F)(F)F)c5c4C(F)(F)[C@@H]4C[C@H]54)c(-c4ccc(F)c(C(N)=O)c4)cc3s2)C1 [Compound 32, 5-(5-((S)-1-(2-((3bS,4aR)-5,5-difluoro-3-(trifluoromethyl)-3b,4,4a,5-tetrahydro-1H-cyclopropa[3,4]cyclopenta[1,2-c]pyrazol-1-yl)acetamido)-2-(3,5-difluorophenyl)ethyl)-2-(3-hydroxy-3-methylazetidin-1-yl)thiazolo[4,5-b]pyridin-6-yl)-2-fluorobenzamide] | 60.6
3 | NC(=O)c1cc(-c2cc3sc(N4CCNC(=O)C4)nc3nc2[C@H](Cc2cc(F)cc(F)c2)NC(=O)Cn2nc(C(F)(F)F)c3c2C(F)(F)[C@@H]2C[C@H]32)ccc1F [Compound 33, 5-(5-((S)-1-(2-((3bS,4aR)-5,5-difluoro-3-(trifluoromethyl)-3b,4,4a,5-tetrahydro-1H-cyclopropa[3,4]cyclopenta[1,2-c]pyrazol-1-yl)acetamido)-2-(3,5-difluorophenyl)ethyl)-2-(3-oxopiperazin-1-yl)thiazolo[4,5-b]pyridin-6-yl)-2-fluorobenzamide] | 88.3
4 | O=C(Cn1nc(C(F)(F)F)c2c1C(F)(F)[C@@H]1C[C@H]21)N[C@@H](Cc1cc(F)cc(F)c1)c1nc2nc(N3CCN(c4ccc(-c5ncc[nH]5)cc4)CC3)sc2cc1-c1ccc2c(c1)C(=O)NC2 [Compound 34, N—((S)-1-(2-(4-(4-(1H-imidazol-2-yl)phenyl)piperazin-1-yl)-6-(3-oxoisoindolin-5-yl)thiazolo[4,5-b]pyridin-5-yl)-2-(3,5-difluorophenyl)ethyl)-2-((3bS,4aR)-5,5-difluoro-3-(trifluoromethyl)-3b,4,4a,5-tetrahydro-1H-cyclopropa[3,4]cyclopenta[1,2-c]pyrazol-1-yl)acetamide] | 97.8
5 | O=C(Cn1nc(C(F)F)c2c1C1CC1CC2)N[C@@H](Cc1cc(F)cc(F)c1)c1nc2nc(N3CCN(c4ccc(-c5ncc[nH]5)cc4)CC3)sc2cc1-c1ccc2c(c1)C(=O)NC2 (stereo partly drawn) [Compound 35, N—((S)-1-(2-(4-(4-(1H-imidazol-2-yl)phenyl)piperazin-1-yl)-6-(3-oxoisoindolin-5-yl)thiazolo[4,5-b]pyridin-5-yl)-2-(3,5-difluorophenyl)ethyl)-2-(3-(difluoromethyl)-5,5a,6,6a-tetrahydrocyclopropa[g]indazol-1(4H)-yl)acetamide] | 31.9
6 | O=C(Cn1nc(C(F)(F)F)c2c1C(F)(F)[C@@H]1C[C@H]21)N[C@@H](Cc1cc(F)cc(F)c1)c1nc2nc(N3CCN(C4COC4)CC3)sc2cc1-c1ccc2c(c1)C(=O)NC2 [Compound 38, 2-((3bS,4aR)-5,5-difluoro-3-(trifluoromethyl)-3b,4,4a,5-tetrahydro-1H-cyclopropa[3,4]cyclopenta[1,2-c]pyrazol-1-yl)-N—((S)-2-(3,5-difluorophenyl)-1-(2-(4-(oxetan-3-yl)piperazin-1-yl)-6-(3-oxoisoindolin-5-yl)thiazolo[4,5-b]pyridin-5-yl)ethyl)acetamide] | 10.1
7 | CC1(O)CN(c2nc3nc([C@H](Cc4cc(F)cc(F)c4)NC(=O)Cn4nc(C(F)(F)F)c5c4C(F)(F)[C@@H]4C[C@H]54)c(-c4cccc5c4CNC5=O)cc3s2)C1 [Compound 39, 2-((3bS,4aR)-5,5-difluoro-3-(trifluoromethyl)-3b,4,4a,5-tetrahydro-1H-cyclopropa[3,4]cyclopenta[1,2-c]pyrazol-1-yl)-N—((S)-2-(3,5-difluorophenyl)-1-(2-(3-hydroxy-3-methylazetidin-1-yl)-6-(1-oxoisoindolin-4-yl)thiazolo[4,5-b]pyridin-5-yl)ethyl)acetamide] | 14.6
8 | NC(=O)c1cc(-c2cc3sc(N4CCN(c5ccc(-c6ncc[nH]6)cc5)CC4)nc3nc2[C@H](Cc2cc(F)cc(F)c2)NC(=O)Cn2nc(C(F)F)c3c2C2CC2CC3)ccc1F (stereo partly drawn) [Compound 41, 5-(2-(4-(4-(1H-imidazol-2-yl)phenyl)piperazin-1-yl)-5-((1S)-1-(2-(3-(difluoromethyl)-5,5a,6,6a-tetrahydrocyclopropa[g]indazol-1(4H)-yl)acetamido)-2-(3,5-difluorophenyl)ethyl)thiazolo[4,5-b]pyridin-6-yl)-2-fluorobenzamide] | 98.1

Results, then the molecule that gave them:

Row | EC50 [nM] | Structure (SMILES)
9 | 28.7 | O=C(Cn1nc(C(F)(F)F)c2c1C(F)(F)[C@@H]1C[C@H]21)N[C@@H](Cc1cc(F)cc(F)c1)c1nc2nc(N3CCN(c4ccncc4)CC3)sc2cc1-c1ccc2c(c1)C(=O)NC2 [Compound 36, 2-((3bS,4aR)-5,5-difluoro-3-(trifluoromethyl)-3b,4,4a,5-tetrahydro-1H-cyclopropa[3,4]cyclopenta[1,2-c]pyrazol-1-yl)-N—((S)-2-(3,5-difluorophenyl)-1-(6-(3-oxoisoindolin-5-yl)-2-(4-(pyridin-4-yl)piperazin-1-yl)thiazolo[4,5-b]pyridin-5-yl)ethyl)acetamide]
10 | 1070 | O=C(Cn1nc(C(F)(F)F)c2c1C(F)(F)[C@@H]1C[C@H]21)N[C@H](Cc1cc(F)cc(F)c1)c1nc2nc(N3CCN(c4ccncc4)CC3)sc2cc1-c1ccc2c(c1)C(=O)NC2 [Compound 37, 2-((3bS,4aR)-5,5-difluoro-3-(trifluoromethyl)-3b,4,4a,5-tetrahydro-1H-cyclopropa[3,4]cyclopenta[1,2-c]pyrazol-1-yl)-N—((R)-2-(3,5-difluorophenyl)-1-(6-(3-oxoisoindolin-5-yl)-2-(4-(pyridin-4-yl)piperazin-1-yl)thiazolo[4,5-b]pyridin-5-yl)ethyl)acetamide]
11 | 28.1 | O=C(Cn1nc(C(F)(F)F)c2c1C(F)(F)[C@@H]1C[C@H]21)N[C@@H](Cc1cc(F)cc(F)c1)c1nc2nc(N3CCN(c4ccncc4)CC3)sc2cc1-c1cccc2c1CNC2=O [Compound 40, 2-((3bS,4aR)-5,5-difluoro-3-(trifluoromethyl)-3b,4,4a,5-tetrahydro-1H-cyclopropa[3,4]cyclopenta[1,2-c]pyrazol-1-yl)-N—((S)-2-(3,5-difluorophenyl)-1-(6-(1-oxoisoindolin-4-yl)-2-(4-(pyridin-4-yl)piperazin-1-yl)thiazolo[4,5-b]pyridin-5-yl)ethyl)acetamide]
12 | 87.2 | O=C(Cn1nc(C(F)(F)F)c2c1C(F)(F)[C@@H]1C[C@H]21)N[C@@H](Cc1cc(F)cc(F)c1)c1nc2nc(N3CCN(c4ccncc4)CC3)sc2cc1-c1ccc2c(c1)C(=O)NC21CC1 [Compound 42, 2-((3bS,4aR)-5,5-difluoro-3-(trifluoromethyl)-3b,4,4a,5-tetrahydro-1H-cyclopropa[3,4]cyclopenta[1,2-c]pyrazol-1-yl)-N—((S)-2-(3,5-difluorophenyl)-1-(6-(3′-oxospiro[cyclopropane-1,1′-isoindolin]-5′-yl)-2-(4-(pyridin-4-yl)piperazin-1-yl)thiazolo[4,5-b]pyridin-5-yl)ethyl)acetamide]
